Measurements taken from patent US20250127906A1, “SMALL-MOLECULE DEGRADERS OF CDK8 AND CDK19” (University of South Carolina, priority 2021, published 2025).
Marks after values point to notes of the source that are not given here.

Target: CDK8 (Homo sapiens, UniProt P49336)
Experiment: CDK8 degradation in HEK-293 cells (Western blot, normalized by GAPDH)
Format: cell-based
Design: endogenous in cells; host or cells: HEK-293
Conditions: for % CDK8 remaining: HEK-293 cells, 24 hours
Description: Table 1 presents the structures of 35 different chimeras that have been synthesized, together with their effects (at 1 μM or 0.3 μM concentrations) on CDK8 degradation in HEK-293 cells. The synthesis schemes of all the compounds are described below. CDK8 degradation was measured by Western blot analysis of RIPA lysates of HEK-293cells treated with or without the test compound for 24 hours, using antibodies against CDK8 (Santa Cruz sc-1521) and housekeeping protein GAPDH (Santa Cruz sc-32233) (loading control) Protein bands on immunoblotted PVDF membranes were visualized with Western Lighting Plus ECL detection reagent (Perkin Elmer, Waltham, MA, USA) using ChemiDoc Touch™ (Bio-Rad). Image processing and densitometry analysis were performed using ImageLab software (Bio-Rad) to quantify the CDK8 protein levels (normalized by GAPDH) and evaluate the effects of compound treatment.
FIGS. 2F and 2G show the effects of different concentrations of potent Senexin C- and BI-1347-based PROTACs on CDK8 and CDK19 degradation in HEK-293cells. Based on these assays, we calculated DC50 values that correspond to PROTAC concentrations inducing degradation of CDK8 and CDK19 to the half of protein level in untreated cells. The corresponding CDK8 DC50 values were 46 nM for IA7843, 6.6 nM for IA7882 and 2.8 nM for IA7886, and CDK19 DC50 values were 1 μM for IA7843, 25 nM for IA7882 and 10 nM for IA7886.

Chain of CDK8 (P49336 whole entry): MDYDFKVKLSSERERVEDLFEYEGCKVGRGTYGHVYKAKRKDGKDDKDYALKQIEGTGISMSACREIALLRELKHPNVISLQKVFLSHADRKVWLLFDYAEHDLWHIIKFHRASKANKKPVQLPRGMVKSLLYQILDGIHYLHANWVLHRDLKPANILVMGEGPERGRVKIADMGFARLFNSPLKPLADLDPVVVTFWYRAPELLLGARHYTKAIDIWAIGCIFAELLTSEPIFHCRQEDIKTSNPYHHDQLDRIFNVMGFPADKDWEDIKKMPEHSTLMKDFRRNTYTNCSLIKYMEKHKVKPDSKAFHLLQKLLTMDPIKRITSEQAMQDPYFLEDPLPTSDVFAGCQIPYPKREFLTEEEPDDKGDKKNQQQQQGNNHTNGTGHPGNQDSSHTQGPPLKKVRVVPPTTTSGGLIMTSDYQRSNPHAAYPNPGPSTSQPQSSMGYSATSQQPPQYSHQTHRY
Chain of CDK8 (P24863 whole entry partner): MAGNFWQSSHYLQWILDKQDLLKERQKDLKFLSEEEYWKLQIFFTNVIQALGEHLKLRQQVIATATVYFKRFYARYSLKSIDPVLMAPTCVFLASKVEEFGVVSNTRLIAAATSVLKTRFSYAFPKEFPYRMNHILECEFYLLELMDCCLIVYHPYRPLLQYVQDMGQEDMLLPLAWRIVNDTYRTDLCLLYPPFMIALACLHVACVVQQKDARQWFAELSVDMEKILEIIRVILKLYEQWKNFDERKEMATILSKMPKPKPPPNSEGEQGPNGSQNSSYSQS

Row | Structure (SMILES) | % CDK8 remaining (tested at 1 μM) [%] | further results
1 | O=C1CCC(N2C(=O)c3cccc(NCCCCC(=O)N4CCN(C(=O)Cn5cc(-c6ccc(-c7cncc8ccccc78)cc6)cn5)CC4)c3C2=O)C(=O)N1 (stereo not shown) [IA7895, 2-(2,6-dioxopiperidin-3-yl)-4-((5-(4-(2-(4-(4-(isoquinolin-4-yl)phenyl)-1H-pyrazol-1-yl)acetyl)piperazin-1-yl)-5-oxopentyl)amino) isoindoline-1,3-dione] |  | % CDK8 remaining (tested at 0.3 μM (marked *)): 70%*
2 | N#Cc1ccc2nccc(NCCc3ccc4cc(C(=O)N5CCN(C(=O)CCCCCCCCNC(=O)CCOCCNc6cccc7c6C(=O)N(C6CCC(=O)NC6=O)C7=O)CC5)ccc4c3)c2c1 (stereo not shown) [IA7835, N-[9-[4-[6-[2-[(6-cyano-4-quinolyl)amino]ethyl]naphthalene-2-carbonyl]piperazin-1-yl]-9-oxo-nonyl]-3-[2-[[2-(2,6-dioxo-3-piperidyl)-1,3-dioxo-isoindolin-4-yl]amino]ethoxy]propanamide] | 45 | 
3 | N#Cc1ccc2nccc(NCCc3ccc4cc(C(=O)N5CCN(C(=O)CCNC(=O)CCOCCOCCOCCNc6cccc7c6C(=O)N(C6CCC(=O)NC6=O)C7=O)CC5)ccc4c3)c2c1 (stereo not shown) [IA7819, N-[3-[4-[6-[2-[(6-cyano-4-quinolyl)amino]ethyl]naphthalene-2-carbonyl]piperazin-1-yl]-3-oxo-propyl]-3-[2-[2-[2-[[2-(2,6-dioxo-3-piperidyl)-1,3-dioxo-isoindolin-4-yl]amino]ethoxy]ethoxy]ethoxy]propanamide] | 66 | 
4 | N#Cc1ccc2nccc(NCCc3ccc4cc(C(=O)N5CCN(C(=O)CCOCCOCCOCCNc6cccc7c6C(=O)N(C6CCC(=O)NC6=O)C7=O)CC5)ccc4c3)c2c1 (stereo not shown) [HV5957, 4-[2-[6-[4-[3-[2-[2-[2-[[2-(2,6-dioxo-3-piperidyl)-1,3-dioxo-isoindolin-4-yl]amino]ethoxy]ethoxy]ethoxy]propanoyl]piperazine-1-carbonyl]-2-naphthyl]ethylamino]quinoline-6-carbonitrile] | 21 | 
5 | N#Cc1ccc2nccc(NCCc3ccc4cc(C(=O)N5CCN(C(=O)CCCCCCCCNC(=O)CCCCCNc6cccc7c6C(=O)N(C6CCC(=O)NC6=O)C7=O)CC5)ccc4c3)c2c1 (stereo not shown) [IA7860, N-[9-[4-[6-[2-[(6-cyano-4-quinolyl)amino]ethyl]naphthalene-2-carbonyl]piperazin-1-yl]-9-oxo-nonyl]-6-[[2-(2,6-dioxo-3-piperidyl)-1,3-dioxo-isoindolin-4-yl]amino]hexanamide] | 95 | 
6 | CN(CCCNC(=O)CCOCCOCCOCCNc1cccc2c1C(=O)N(C1CCC(=O)NC1=O)C2=O)C(=O)c1ccc(N2CCCN(c3ccnc4sc(C(N)=O)c(N)c34)CC2)cc1 (stereo not shown) [HP8575, 3-amino-4-[4-[4-[3-[3-[2-[2-[2-[[2-(2,6-dioxo-3-piperidyl)-1,3-dioxo-isoindolin-4-yl]amino]ethoxy]ethoxy]ethoxy]propanoylamino]propyl-methyl-carbamoyl]phenyl]-1,4-diazepan-1-yl]thieno[2,3-b]pyridine-2-carboxamide] | 77 | 
7 | CN(CCCNC(=O)CCOCCOCCOCCOCCNc1cccc2c1C(=O)N(C1CCC(=O)NC1=O)C2=O)C(=O)c1ccc(N2CCCN(c3ccnc4sc(C(N)=O)c(N)c34)CC2)cc1 (stereo not shown) [HP8553] | 74 | 
8 | N#Cc1ccc2nccc(NCCc3ccc4cc(C(=O)N5CCN(C(=O)CCCCCCCCCNC(=O)CCCCCNc6cccc7c6C(=O)N(C6CCC(=O)NC6=O)C7=O)CC5)ccc4c3)c2c1 (stereo not shown) [IA7859, N-[10-[4-[6-[2-[(6-cyano-4-quinolyl)amino]ethyl]naphthalene-2-carbonyl]piperazin-1-yl]-10-oxo-decyl]-6-[[2-(2,6-dioxo-3-piperidyl)-1,3-dioxo-isoindolin-4-yl]amino]hexanamide] | 81 | 
9 | N#Cc1ccc2nccc(NCCc3ccc4cc(C(=O)N5CCN(CCCNC(=O)CCOCCOCCOCCOCCNc6cccc7c6C(=O)N(C6CCC(=O)NC6=O)C7=O)CC5)ccc4c3)c2c1 (stereo not shown) [HP8579] | 29 | 
10 | O=C1CCC(N2C(=O)c3cccc(NCCOCCOCCOCCC(=O)N4CCN(C(=O)Cn5cc(-c6ccc(-c7cncc8ccccc78)cc6)cn5)CC4)c3C2=O)C(=O)N1 (stereo not shown) [IA7894, 2-(2,6-dioxopiperidin-3-yl)-4-((2-(2-(2-(3-(4-(2-(4-(4-(isoquinolin-4-yl)phenyl)-1H-pyrazol-1-yl)acetyl)piperazin-1-yl)-3-oxopropoxy)ethoxy)ethoxy)ethyl)amino) isoindoline-1,3-dione] |  | % CDK8 remaining (tested at 0.3 μM (marked *)): 51%*
11 | Nc1cccc2c1C(=O)N(C1CCC(=O)NC1=O)C2=O (stereo not shown) [pomalidomide, reference compound] |  | induction of CDK8 degradation by single agents (HEK-293, HP8580 200 nM and 1 μM, pomalidomide 5 μM, Senexin C 5 μM): but not pomalidomide or Senexin C induced CDK8 degradation
12 | N#Cc1ccc2nccc(NCCc3ccc4cc(C(=O)N5CCN(C(=O)CCCCCCCCNC(=O)CCCCNc6cccc7c6C(=O)N(C6CCC(=O)NC6=O)C7=O)CC5)ccc4c3)c2c1 (stereo not shown) [IA7858, N-[9-[4-[6-[2-[(6-cyano-4-quinolyl)amino]ethyl]naphthalene-2-carbonyl]piperazin-1-yl]-9-oxo-nonyl]-5-[[2-(2,6-dioxo-3-piperidyl)-1,3-dioxo-isoindolin-4-yl]amino]pentanamide] | 21 | 
13 | CN(CCCNC(=O)CCOCCOCCOCCOCCOCCOCCNc1cccc2c1C(=O)N(C1CCC(=O)NC1=O)C2=O)C(=O)c1ccc(N2CCCN(c3ccnc4sc(C(N)=O)c(N)c34)CC2)cc1 (stereo not shown) [IA7814, 3-amino-4-[4-[4-[3-[3-[2-[2-[2-[2-[2-[2-[[2-(2,6-dioxo-3-piperidyl)-1,3-dioxo-isoindolin-4-yl]amino]ethoxy]ethoxy]ethoxy]ethoxy]ethoxy]ethoxy]propanoylamino]propyl-methyl-carbamoyl]phenyl]-1,4-diazepan-1-yl]thieno[2,3-b]pyridine-2-carboxamide] | 59 | 
14 | N#Cc1ccc2nccc(NCCc3ccc4cc(C(=O)N5CCN(C(=O)CCOCCOCCOCCOCCOCCNc6cccc7c6C(=O)N(C6CCC(=O)NC6=O)C7=O)CC5)ccc4c3)c2c1 (stereo not shown) [IA7812, 4-[2-[6-[4-[3-[2-[2-[2-[2-[2-[[2-(2,6-dioxo-3-piperidyl)-1,3-dioxo-isoindolin-4-yl]amino]ethoxy]ethoxy]ethoxy]ethoxy]ethoxy]propanoyl]piperazine-1-carbonyl]-2-naphthyl]ethylamino]quinoline-6-carbonitrile] | 29 | 
15 | CN1C(=O)CCC(N2C(=O)c3cccc(NCCOCCOCCOCCOCCC(=O)N4CCN(C(=O)c5ccc6cc(CCNc7ccnc8ccc(C#N)cc78)ccc6c5)CC4)c3C2=O)C1=O (stereo not shown) [IA7803, 4-[2-[6-[4-[3-[2-[2-[2-[2-[[2-(1-methyl-2,6-dioxo-3-piperidyl)-1,3-dioxo-isoindolin-4-yl]amino]ethoxy]ethoxy]ethoxy]ethoxy]propanoyl]piperazine-1-carbonyl]-2-naphthyl]ethylamino]quinoline-6-carbonitrile] | 100 | 
16 | N#Cc1ccc2nccc(NCCc3ccc4cc(C(=O)N5CCN(C(=O)CCNC(=O)CCOCCOCCOCCOCCNc6cccc7c6C(=O)N(C6CCC(=O)NC6=O)C7=O)CC5)ccc4c3)c2c1 (stereo not shown) [IA7822, N-[3-[4-[6-[2-[(6-cyano-4-quinolyl)amino]ethyl]naphthalene-2-carbonyl]piperazin-1-yl]-3-oxo-propyl]-3-[2-[2-[2-[2-[[2-(2,6-dioxo-3-piperidyl)-1,3-dioxo-isoindolin-4-yl]amino]ethoxy]ethoxy]ethoxy]ethoxy]propanamide] | 65 | 
17 | Cc1ncsc1-c1ccc(CNC(=O)[C@@H]2C[C@@H](O)CN2C(=O)[C@@H](NC(=O)CCCCCCCCC(=O)N2CCN(C(=O)c3ccc4cc(CCNc5ccnc6ccc(C#N)cc56)ccc4c3)CC2)C(C)(C)C)cc1 (racemic) [IA7862, rac-(2S,4R)-4-hydroxy-N-[[4-(4-methylthiazol-5-yl)phenyl]methyl]-1-[rac-(2S)-2-[[10-[4-[6-[2-[(6-cyano-4-quinolyl)amino]ethyl]naphthalene-2-carbonyl]piperazin-1-yl]-10-oxo-decanoyl]amino]-3,3-dimethyl-butanoyl]pyrrolidine-2-carboxamide] | 69 | 
18 | Cc1ncsc1-c1ccc(CNC(=O)[C@@H]2C[C@@H](O)CN2C(=O)[C@@H](NC(=O)CCOCCOCCOCCOCCC(=O)N2CCN(C(=O)c3ccc4cc(CCNc5ccnc6ccc(C#N)cc56)ccc4c3)CC2)C(C)(C)C)cc1 [IA7807, (2S,4R)-1-((S)-2-(tert-butyl)-19-(4-(6-(2-((6-cyanoquinolin-4-yl)amino)ethyl)-2-naphthoyl)piperazin-1-yl)-4,19-dioxo-7,10,13,16-tetraoxa-3-azanonadecanoyl)-4-hydroxy-N-(4-(4-methylthiazol-5-yl)benzyl) pyrrolidine-2-carboxamide] | 100 | 
19 | CN(CCCNC(=O)CCOCCOCCOCCOCCNc1cccc2c1C(=O)N(C1CCC(=O)NC1=O)C2=O)C(=O)c1ccc2cc(CCNc3ccnc4ccc(C#N)cc34)ccc2c1 (stereo not shown) [HP8581, 6-[2-[(6-cyano-4-quinolyl)amino]ethyl]-N-[3-[3-[2-[2-[2-[2-[[2-(2,6-dioxo-3-piperidyl)-1,3-dioxo-isoindolin-4-yl]amino]ethoxy]ethoxy]ethoxy]ethoxy]propanoylamino]propyl]-N-methyl-naphthalene-2-carboxamide] | 36 | 
